Test results taken from the supplement of paper PMC6045584.
± gives the standard deviation of the averaged measurements.

Experiments:
[1] = compound: COc1cc2c(cc1O)CC[C@@H]1[C@@H]2CC[C@]2(C)[C@@H](O)CC[C@@H]12 [2-METHOXYESTRADIOL]; experiment: surviving fraction relative to DMSO-only wells; higher = less growth inhibition; settings: exposure time: 5 days
In short: (§1)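 Lines were retained only if, across three screens, replicate Pearson r was >0.7 and median Z' was >0.3. Viability was measured as CellTiter-Glo luminescence and reported as surviving fraction relative to the median of DMSO-only wells. Readings followed 10 minutes at room temperature, after log-phase tumour cells seeded at 250–500 per well in 384-well plates had been exposed, from 24 hours after seeding, continuously for five days to inhibitors at 0.5, 1, 5, 10, 50, 100, 500 and 1000 nM.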

[2] = compound: CS(=O)(=O)CCNCc1ccc(-c2ccc3ncnc(Nc4ccc(OCc5cccc(F)c5)c(Cl)c4)c3c2)o1 [LAPATINIB]; experiment: as above; settings: exposure time: 5 days
In short: as §1

## 22RV1 PROSTATE
[1]; 0.5 nM
  surviving fraction: 1.01 ± 0.057
[1]; 1 nM
  surviving fraction: 1.09 ± 0.17
[1]; 5 nM
  surviving fraction: 1.04 ± 0.07
[1]; 10 nM
  surviving fraction: 1.07 ± 0.15
[1]; 50 nM
  surviving fraction: 1.03 ± 0.073
[1]; 100 nM
  surviving fraction: 0.903 ± 0.16
[1]; 500 nM
  surviving fraction: 0.791 ± 0.18
[1]; 1000 nM
  surviving fraction: 0.646 ± 0.068
[2]; 0.5 nM
  surviving fraction: 1.01 ± 0.05
[2]; 1 nM
  surviving fraction: 1.1 ± 0.096
[2]; 5 nM
  surviving fraction: 0.954 ± 0.076
[2]; 10 nM
  surviving fraction: 1.01 ± 0.1
[2]; 50 nM
  surviving fraction: 1.04 ± 0.034
[2]; 100 nM
  surviving fraction: 1.07 ± 0.085
[2]; 500 nM
  surviving fraction: 1.08 ± 0.12
[2]; 1000 nM
  surviving fraction: 1.11 ± 0.059

## 93VU HEADNECK
[1]; 0.5 nM
  surviving fraction: 0.864 ± 0.13
[1]; 1 nM
  surviving fraction: 0.829 ± 0.072
[1]; 5 nM
  surviving fraction: 1.07 ± 0.096
[1]; 10 nM
  surviving fraction: 1.14 ± 0.062
[1]; 50 nM
  surviving fraction: 1.09 ± 0.058
[1]; 100 nM
  surviving fraction: 0.921 ± 0.017
[1]; 500 nM
  surviving fraction: 0.741 ± 0.049
[1]; 1000 nM
  surviving fraction: 0.788 ± 0.034
[2]; 0.5 nM
  surviving fraction: 1.04 ± 0.13
[2]; 1 nM
  surviving fraction: 1.09 ± 0.11
[2]; 5 nM
  surviving fraction: 1.07 ± 0.018
[2]; 10 nM
  surviving fraction: 1.12 ± 0.069
[2]; 50 nM
  surviving fraction: 0.806 ± 0.021
[2]; 100 nM
  surviving fraction: 0.827 ± 0.045
[2]; 500 nM
  surviving fraction: 0.493 ± 0.039
[2]; 1000 nM
  surviving fraction: 0.438 ± 0.041

## 143B BONE
[1]; 0.5 nM
  surviving fraction: 1.04 ± 0.049
[1]; 1 nM
  surviving fraction: 1.06 ± 0.054
[1]; 5 nM
  surviving fraction: 1.1 ± 0.071
[1]; 10 nM
  surviving fraction: 1.09 ± 0.073
[1]; 50 nM
  surviving fraction: 1.08 ± 0.071
[1]; 100 nM
  surviving fraction: 1.09 ± 0.046
[1]; 500 nM
  surviving fraction: 0.536 ± 0.069
[1]; 1000 nM
  surviving fraction: 0.159 ± 0.016
[2]; 0.5 nM
  surviving fraction: 0.986 ± 0.065
[2]; 1 nM
  surviving fraction: 1.07 ± 0.057
[2]; 5 nM
  surviving fraction: 0.931 ± 0.14
[2]; 10 nM
  surviving fraction: 0.967 ± 0.11
[2]; 50 nM
  surviving fraction: 1.01 ± 0.013
[2]; 100 nM
  surviving fraction: 1.08 ± 0.11
[2]; 500 nM
  surviving fraction: 1.02 ± 0.016
[2]; 1000 nM
  surviving fraction: 1.01 ± 0.021

## A549 LUNG
[1]; 0.5 nM
  surviving fraction: 0.991 ± 0.016
[1]; 1 nM
  surviving fraction: 0.9623 ± 0.0067
[1]; 5 nM
  surviving fraction: 0.983 ± 0.018
[1]; 10 nM
  surviving fraction: 0.945 ± 0.021
[1]; 50 nM
  surviving fraction: 1.02 ± 0.043
[1]; 100 nM
  surviving fraction: 1.05 ± 0.015
[1]; 500 nM
  surviving fraction: 0.992 ± 0.025
[1]; 1000 nM
  surviving fraction: 0.544 ± 0.028
[2]; 0.5 nM
  surviving fraction: 1.038 ± 0.0095
[2]; 1 nM
  surviving fraction: 1.14 ± 0.044
[2]; 5 nM
  surviving fraction: 1.06 ± 0.02
[2]; 10 nM
  surviving fraction: 1.07 ± 0.016
[2]; 50 nM
  surviving fraction: 1.02 ± 0.043
[2]; 100 nM
  surviving fraction: 1.06 ± 0.05
[2]; 500 nM
  surviving fraction: 1 ± 0.041
[2]; 1000 nM
  surviving fraction: 1.02 ± 0.036

## ASKA SYNOVIAL
[1]; 0.5 nM
  surviving fraction: 1.07 ± 0.086
[1]; 1 nM
  surviving fraction: 1.08 ± 0.068
[1]; 5 nM
  surviving fraction: 1.05 ± 0.054
[1]; 10 nM
  surviving fraction: 1.07 ± 0.054
[1]; 50 nM
  surviving fraction: 1.1 ± 0.049
[1]; 100 nM
  surviving fraction: 1.03 ± 0.066
[1]; 500 nM
  surviving fraction: 0.503 ± 0.039
[1]; 1000 nM
  surviving fraction: 0.353 ± 0.015
[2]; 0.5 nM
  surviving fraction: 1.17 ± 0.046
[2]; 1 nM
  surviving fraction: 1.1 ± 0.012
[2]; 5 nM
  surviving fraction: 1.13 ± 0.045
[2]; 10 nM
  surviving fraction: 1.16 ± 0.053
[2]; 50 nM
  surviving fraction: 1.21 ± 0.092
[2]; 100 nM
  surviving fraction: 1.19 ± 0.069
[2]; 500 nM
  surviving fraction: 1.16 ± 0.1
[2]; 1000 nM
  surviving fraction: 1.15 ± 0.068

## BT20 BREAST
[1]; 0.5 nM
  surviving fraction: 1.08 ± 0.068
[1]; 1 nM
  surviving fraction: 1.09 ± 0.062
[1]; 5 nM
  surviving fraction: 1.07 ± 0.082
[1]; 10 nM
  surviving fraction: 1.05 ± 0.076
[1]; 50 nM
  surviving fraction: 1.24 ± 0.14
[1]; 100 nM
  surviving fraction: 1.11 ± 0.067
[1]; 500 nM
  surviving fraction: 1.13 ± 0.044
[1]; 1000 nM
  surviving fraction: 0.662 ± 0.048
[2]; 0.5 nM
  surviving fraction: 1.12 ± 0.065
[2]; 1 nM
  surviving fraction: 1.128 ± 0.0092
[2]; 5 nM
  surviving fraction: 1.05 ± 0.048
[2]; 10 nM
  surviving fraction: 1.12 ± 0.05
[2]; 50 nM
  surviving fraction: 1.14 ± 0.048
[2]; 100 nM
  surviving fraction: 1.18 ± 0.054
[2]; 500 nM
  surviving fraction: 1.16 ± 0.045
[2]; 1000 nM
  surviving fraction: 1.38 ± 0.068

## BT549 BREAST
[1]; 0.5 nM
  surviving fraction: 0.974 ± 0.087
[1]; 1 nM
  surviving fraction: 1.05 ± 0.1
[1]; 5 nM
  surviving fraction: 1.05 ± 0.12
[1]; 10 nM
  surviving fraction: 1.02 ± 0.024
[1]; 50 nM
  surviving fraction: 0.968 ± 0.17
[1]; 100 nM
  surviving fraction: 1.08 ± 0.14
[1]; 500 nM
  surviving fraction: 0.53 ± 0.092
[1]; 1000 nM
  surviving fraction: 0.106 ± 0.044
[2]; 0.5 nM
  surviving fraction: 1.1 ± 0.073
[2]; 1 nM
  surviving fraction: 1.01 ± 0.081
[2]; 5 nM
  surviving fraction: 0.971 ± 0.044
[2]; 10 nM
  surviving fraction: 1.06 ± 0.043
[2]; 50 nM
  surviving fraction: 1.07 ± 0.1
[2]; 100 nM
  surviving fraction: 1.03 ± 0.054
[2]; 500 nM
  surviving fraction: 1.15 ± 0.14
[2]; 1000 nM
  surviving fraction: 0.977 ± 0.085

## C33A CERVIX
[1]; 0.5 nM
  surviving fraction: 0.689 ± 0.038
[1]; 1 nM
  surviving fraction: 0.772 ± 0.04
[1]; 5 nM
  surviving fraction: 0.918 ± 0.1
[1]; 10 nM
  surviving fraction: 1.03 ± 0.055
[1]; 50 nM
  surviving fraction: 0.965 ± 0.031
[1]; 100 nM
  surviving fraction: 0.964 ± 0.055
[1]; 500 nM
  surviving fraction: 0.482 ± 0.087
[1]; 1000 nM
  surviving fraction: 0.595 ± 0.028
[2]; 0.5 nM
  surviving fraction: 0.988 ± 0.07
[2]; 1 nM
  surviving fraction: 1.03 ± 0.041
[2]; 5 nM
  surviving fraction: 1.11 ± 0.036
[2]; 10 nM
  surviving fraction: 1.02 ± 0.045
[2]; 50 nM
  surviving fraction: 0.887 ± 0.037
[2]; 100 nM
  surviving fraction: 0.859 ± 0.017
[2]; 500 nM
  surviving fraction: 0.62 ± 0.014
[2]; 1000 nM
  surviving fraction: 0.537 ± 0.017

## CADOES1 SOFT TISSUE
[1]; 0.5 nM
  surviving fraction: 0.795 ± 0.055
[1]; 1 nM
  surviving fraction: 0.875 ± 0.099
[1]; 5 nM
  surviving fraction: 0.846 ± 0.11
[1]; 10 nM
  surviving fraction: 0.894 ± 0.18
[1]; 50 nM
  surviving fraction: 0.886 ± 0.047
[1]; 100 nM
  surviving fraction: 0.867 ± 0.15
[1]; 500 nM
  surviving fraction: 0.964 ± 0.062
[1]; 1000 nM
  surviving fraction: 0.358 ± 0.098
[2]; 0.5 nM
  surviving fraction: 0.959 ± 0.045
[2]; 1 nM
  surviving fraction: 1.06 ± 0.096
[2]; 5 nM
  surviving fraction: 0.976 ± 0.12
[2]; 10 nM
  surviving fraction: 0.996 ± 0.16
[2]; 50 nM
  surviving fraction: 0.958 ± 0.096
[2]; 100 nM
  surviving fraction: 1.09 ± 0.097
[2]; 500 nM
  surviving fraction: 1.13 ± 0.052
[2]; 1000 nM
  surviving fraction: 1.13 ± 0.094

## CAL51 BREAST
[1]; 0.5 nM
  surviving fraction: 0.949 ± 0.068
[1]; 1 nM
  surviving fraction: 1.01 ± 0.081
[1]; 5 nM
  surviving fraction: 0.992 ± 0.018
[1]; 10 nM
  surviving fraction: 0.996 ± 0.063
[1]; 50 nM
  surviving fraction: 0.967 ± 0.044
[1]; 100 nM
  surviving fraction: 1 ± 0.046
[1]; 500 nM
  surviving fraction: 0.48 ± 0.036
[1]; 1000 nM
  surviving fraction: 0.0988 ± 0.0065
[2]; 0.5 nM
  surviving fraction: 0.966 ± 0.078
[2]; 1 nM
  surviving fraction: 1.08 ± 0.024
[2]; 5 nM
  surviving fraction: 1.03 ± 0.055
[2]; 10 nM
  surviving fraction: 1.02 ± 0.04
[2]; 50 nM
  surviving fraction: 0.994 ± 0.042
[2]; 100 nM
  surviving fraction: 1.08 ± 0.032
[2]; 500 nM
  surviving fraction: 1.02 ± 0.089
[2]; 1000 nM
  surviving fraction: 0.989 ± 0.03
